The test system of assay [1] is basal ERK1/2 phosphorylation in Malme-3M cells. Kind of assay: Cellular ERK 1/2 phosphorylation assay. Conditions: Homo sapiens, 1 h, pERK normalized to total ERK. Format: cell-based. On the procedure:
Inhibition of basal ERK1/2 phosphorylation was determined by the following in vitro […], which comprises incubating cells with a compound of Formula II for 1 hour and quantifying the fluorescent pERK signal on fixed cells and normalizing to total ERK signal.
Materials and Methods: Malme-3M cells were obtained from ATCC and grown in RPMI-1640 supplemented with 10% fetal bovine serum. Cells were plated in 96-well plates at 24,000 cells/well and allowed to attach for 16-20 hours at 37° C., 5% CO2. The media was removed, and DMSO-diluted compounds were added in RPMI-1640 at a final concentration of 1% DMSO. The cells were incubated with the compounds for 1 hour at 37° C., 5% CO2. The cells were washed with PBS and fixed in 3.7% formaldehyde in PBS for 15 minutes. This was followed by washing in PBS/0.05% Tween20 and permeabilizing in −20° C. 100% MeOH for 15 minutes. Cells were washed in PBS/0.05% Tween20 then blocked in Odyssey blocking buffer (LI-COR Biosciences) for 1 hour. Antibodies to phosphorylated ERK (1:400, Cell Signaling #9106, monoclonal) and total ERK (1:400, Santa Cruz Biotechnology #sc-94, polyclonal) were added to the cells and incubated 16-20 hours at 4° C. After washing with PBS/0.05% Tween20, the cells were incubated with fluorescently-labeled secondary antibodies (1:1000 goat anti-rabbit IgG-IRDye800, Rockland and 1:500 goat anti-mouse IgG-Alexa Fluor 680, Molecular Probes) for an additional hour. Cells were then washed and analyzed for fluorescence at both wavelengths using the Odyssey Infrared Imaging System (LI-COR Biosciences). Phosphorylated ERK signal was normalized to total ERK signal.

The target in the next assay is T1, V600E full-length B-Raf (Homo sapiens, UniProt P15056, V600E).
T1 construct: 1 μM FSBA-MEK and 20 nM V600E full-length B-Raf; made in house; host or cells: Sf9 insect cells (baculovirus)
T1 sequence (P15056 whole entry V600E): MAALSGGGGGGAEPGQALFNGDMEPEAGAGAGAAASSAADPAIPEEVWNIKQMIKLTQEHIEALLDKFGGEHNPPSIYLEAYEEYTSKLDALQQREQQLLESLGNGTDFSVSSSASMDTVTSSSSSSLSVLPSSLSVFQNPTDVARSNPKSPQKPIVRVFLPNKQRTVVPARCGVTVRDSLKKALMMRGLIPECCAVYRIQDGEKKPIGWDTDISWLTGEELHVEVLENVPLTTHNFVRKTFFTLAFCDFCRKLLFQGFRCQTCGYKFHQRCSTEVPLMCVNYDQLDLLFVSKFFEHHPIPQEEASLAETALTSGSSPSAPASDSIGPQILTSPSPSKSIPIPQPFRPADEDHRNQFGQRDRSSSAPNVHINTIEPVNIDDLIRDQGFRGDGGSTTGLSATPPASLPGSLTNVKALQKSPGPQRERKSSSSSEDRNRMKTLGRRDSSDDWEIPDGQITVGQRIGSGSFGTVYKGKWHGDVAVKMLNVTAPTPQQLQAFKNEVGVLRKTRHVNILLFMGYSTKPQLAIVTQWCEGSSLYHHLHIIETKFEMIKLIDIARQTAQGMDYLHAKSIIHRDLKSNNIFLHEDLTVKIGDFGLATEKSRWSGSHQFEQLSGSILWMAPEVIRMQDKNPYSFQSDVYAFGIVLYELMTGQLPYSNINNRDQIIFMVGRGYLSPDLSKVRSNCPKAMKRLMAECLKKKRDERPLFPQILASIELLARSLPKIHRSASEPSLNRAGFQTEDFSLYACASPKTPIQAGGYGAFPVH
Briefly: B-Raf IC50 assay (incorporation of 33P phosphate into FSBA-modified MEK). In kind it is biochemical. An excerpt: Determining the activity of Raf in the sample is possible by a number of direct and indirect detection methods (US 2004/0082014). Activity of human recombinant B-Raf protein may be assessed in vitro by assay of the incorporation of radio labeled phosphate to recombinant MAP kinase (MEK), a known physiologic substrate of B-Raf, according to US 2004/0127496 and WO 03/022840. The activity/inhibition of V600E full-length B-Raf was estimated by measuring the incorporation of radio labeled phosphate from [γ-^33P]ATP into FSBA-modified wild-type MEK (see Example A).
Activity of human recombinant B-Raf protein may be assessed in vitro by assay of the incorporation of radio labeled phosphate to recombinant MAP kinase (MEK), a known physiologic substrate of B-Raf, according to US 2004/0127496 and WO 03/022840. Catalytically active human recombinant B-Raf protein is obtained by purification from sf9 insect cells infected with a human B-Raf recombinant baculovirus expression vector.
The activity/inhibition of V600E full-length B-Raf was estimated by measuring the incorporation of radio labeled phosphate from [γ-^33P]ATP into FSBA-modified wild-type MEK. The 30-μL assay mixtures contained 25 mM Na Pipes, pH 7.2, 100 mM KCl, 10 mM MgCl2, 5 mM β-glycerophosphate, 100 μM Na Vanadate, 4 μM ATP, 500 nCi [γ-^33P]ATP, 1 μM FSBA-MEK and 20 nM V600E full-length B-Raf. Incubations were carried out at 22° C. in a Costar 3365 plate (Corning). Prior to the assay, the B-Raf and FSBA-MEK were preincubated together in assay buffer at 1.5× (20 μL of 30 nM and 1.5 μM, respectively) for 15 minutes, and the assay was initiated by the addition of 10 μL of 10 μM ATP. Following the 60-minute incubation, the assay mixtures were quenched by the addition of 100 μL of 25% TCA, the plate was mixed on a rotary shaker for 1 minute, and the product was captured on a Perkin-Elmer GF/B filter plate using a Tomtec Mach III Harvester. After sealing the bottom of the plate, 35 μL of Bio-Safe II (Research Products International) scintillation cocktail were added to each well and the plate was top-sealed and counted in a Topcount NXT (Packard).

[2] abbreviates: B-Raf V600E, bound less than 1 μM, read-out: IC50.
Where [3] appears, read: Example A assay, 4 μM ATP, 20 nM enzyme, 60-minute incubation, read-out: BRAF V600E IC50.

The values below come from patent US20120157453A1, “RAF INHIBITOR COMPOUNDS AND METHODS OF USE THEREOF” (GENENTECH, INC., priority 2009, published 2012).

In general, IC50 refers to the point on the concentration scale where inhibition reaches its midpoint.

Like-named read-outs stand apart in the source and are kept apart here. Bounds are passed on as bounds.

For `CCS(=O)(=O)Nc1ccc(F)c(NC(=O)Nc2ncnc3[nH]nc(OC)c23)c1Cl` [Example 5, Ethanesulfonic acid {2-chloro-4-fluoro-3-[3-(3-methoxy-1H-pyrazolo[3,4-d]pyrimidin-4-yl)-ureido]-phenyl}-amide], the IC50 in assay [1] is 47.9 nM; in assay [1] (bound less than 500 nM), less than 500 nM; in assay [1] (bound less than 1 μM), less than 1000 nM; on V600E full-length B-Raf (setting [2]) it was less than 1000 nM; at V600E full-length B-Raf (setting [3]), 3.9 nM.

As to `CCCS(=O)(=O)Nc1ccc(F)c(NC(=O)Nc2ncnc3sccc23)c1F` [Example 17, Propane-1-sulfonic acid [2,4-difluoro-3-(3-thieno[2,3-d]pyrimidin-4-yl-ureido)-phenyl]-amide], the 50% inhibitory concentration (IC50) in assay [1] (bound less than 500 nM) is less than 500 nM; in assay [1] (bound less than 1 μM), less than 1000 nM; on V600E full-length B-Raf (setting [2]), less than 1000 nM; on V600E full-length B-Raf (setting [3]), 97.9 nM.

Take `CCCS(=O)(=O)Nc1ccc(F)c(NC(=O)Nc2ncnc3[nH]nc(OC)c23)c1F` [Example 10, Propane-1-sulfonic acid {2,4-difluoro-3-[3-(3-methoxy-1H-pyrazolo[3,4-d]pyrimidin-4-yl)-ureido]-phenyl}-amide]: the IC50 in assay [1] (bound less than 500 nM) is less than 500 nM; in assay [1] (bound less than 1 μM) it was less than 1000 nM; at V600E full-length B-Raf (setting [2]), less than 1000 nM; on V600E full-length B-Raf (setting [3]), 1.4 nM.

In the case of `CCCS(=O)(=O)Nc1ccc(Cl)c(NC(=O)Nc2ncnc3oc(C)c(C)c23)c1F` [Example 21, Propane-1-sulfonic acid {4-chloro-3-[3-(5,6-dimethyl-furo[2,3-d]pyrimidin-4-yl)-ureido]-2-fluoro-phenyl}-amide], the IC50 is 522 nM in assay [1], less than 1000 nM in assay [1] (bound less than 1 μM), less than 1000 nM on V600E full-length B-Raf (setting [2]) and 90.8 nM on V600E full-length B-Raf (setting [3]).

As for `CCCS(=O)(=O)Nc1ccc(Cl)c(NC(=O)Nc2ncnc3sccc23)c1F` [Example 22, Propane-1-sulfonic acid [4-chloro-2-fluoro-3-(3-thieno[2,3-d]pyrimidin-4-yl-ureido)-phenyl]-amide], the half-maximal inhibitory concentration (IC50) is less than 500 nM in assay [1] (bound less than 500 nM), less than 1000 nM in assay [1] (bound less than 1 μM), less than 1000 nM at V600E full-length B-Raf (setting [2]) and 18.8 nM on V600E full-length B-Raf (setting [3]).
